Measured values published in patent publication US20240199587A1, “HETEROCYCLIC COMPOUNDS” (Hoffmann-La Roche Inc., priority 2021, published 2024).

target: T1, MAGL (Homo sapiens, UniProt Q99685); assay: 2-AG assay (MAGL inhibitory activity, hydrolysis of 2-arachidonoylglycerol to arachidonic acid followed by mass spectrometry); assay type: biochemical; conditions: 8 μM 2-arachidonoylglycerol, 15 min pre-incubation, 30 min incubation at RT, RapidFire MS readout
T1 sequence (Q99685 1-303): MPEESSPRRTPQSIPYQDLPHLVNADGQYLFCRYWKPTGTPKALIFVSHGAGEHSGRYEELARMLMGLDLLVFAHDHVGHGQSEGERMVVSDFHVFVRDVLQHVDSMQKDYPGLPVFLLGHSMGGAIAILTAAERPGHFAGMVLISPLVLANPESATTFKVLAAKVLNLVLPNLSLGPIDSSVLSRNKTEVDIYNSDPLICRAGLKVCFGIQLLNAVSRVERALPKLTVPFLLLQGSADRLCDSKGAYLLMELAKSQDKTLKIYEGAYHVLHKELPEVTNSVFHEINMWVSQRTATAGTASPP
Method in brief: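 Arachidonic acid released from 8 μM 2-arachidonoylglycerol was quantified by online SPE triple-quadrupole MS (negative ESI, 303.1→259.1), normalised to d8-arachidonic acid internal standard. Reaction ran 30 min at RT after 15 min RT compound pre-incubation with […] MAGL in TRIS/EDTA/Tween-20 buffer, 2.5% DMSO.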

Going from `O=C(C1CC(OCC2(C(F)(F)F)CC2)C1)N1CC2(CC(n3cnc(C4CC4)n3)C2)C1` (stereo not drawn) [compound 176, [6-(3-cyclopropyl-1,2,4-triazol-1-yl)-2-azaspiro[3.3]heptan-2-yl]-[3-[[1-(trifluoromethyl)cyclopropyl]methoxy]cyclobutyl]methanone] to `O=C(N1CC2(CC(Oc3ccc(C(F)(F)F)cc3)C2)C1)N1CC2(CC(n3cnc(C4CC4)n3)C2)C1` [Example 43, [6-(3-cyclopropyl-1,2,4-triazol-1-yl)-2-azaspiro[3.3]heptan-2-yl]-[6-[4-(trifluoromethyl)phenoxy]-2-azaspiro[3.3]heptan-2-yl]methanone], the IC50 falls from 1440 nM to 0.1 nM (14000-fold).

First: COC(=O)c1ccccc1CN1CC2(C1)CN(C(=O)N1CC3(CC(n4cnc(C5CC5)n4)C3)C1)C2 [Example 229, methyl 2-[[2-[6-(3-cyclopropyl-1,2,4-triazol-1-yl)-2-azaspiro[3.3]heptane-2-carbonyl]-2,6-diazaspiro[3.3]heptan-6-yl]methyl]benzoate]
Second: O=C(c1ccc(F)cc1Cl)N1CC2(C1)CN(C(=O)N1CC3(CC(n4cnc(C5CC5)n4)C3)C1)C2 [Example 292, (2-chloro-4-fluoro-phenyl)-[2-[6-(3-cyclopropyl-1,2,4-triazol-1-yl)-2-azaspiro[3.3]heptane-2-carbonyl]-2,6-diazaspiro[3.3]heptan-6-yl]methanone]
The IC50 of the first is 17-fold lower: 4.5 nM for the first, 77.1 nM for the second.

Compared with `O=C(N1CC(NCc2ccc(C(F)(F)F)cc2Cl)C1)N1CC2(CC(c3ccc(C(F)(F)F)nc3)C2)C1` [Example 531], `COc1cc(C(F)(F)F)ccc1CNC1CN(C(=O)N2CC3(CC(c4ccc(C(F)(F)F)nc4)C3)C2)C1` [Example 518, [3-[[2-methoxy-4-(trifluoromethyl)phenyl]methylamino]azetidin-1-yl]-[6-[6-(trifluoromethyl)-3-pyridyl]-2-azaspiro[3.3]heptan-2-yl]methanone] is 2.1-fold lower in IC50: 1300 nM for the first, 610 nM for the second. The second is the more potent here.

Going from `O=C(N1C[C@H]2C[C@H](Oc3ccc(OC(F)(F)F)c(F)c3)C[C@H]2C1)N1CC2(CC(n3cnc(C4CC4)n3)C2)C1` [Example 135, [6-(3-cyclopropyl-1,2,4-triazol-1-yl)-2-azaspiro[3.3]heptan-2-yl]-[rac-(3aS,6aR)-5-[3-fluoro-4-(trifluoromethoxy)phenoxy]-3,3a,4,5,6,6a-hexahydro-1H-cyclopenta[c]pyrrol-2-yl]methanone] to `COc1cc(F)ccc1O[C@H]1C[C@@H]2CN(C(=O)N3CC4(CC(n5cnc(C6CC6)n5)C4)C3)C[C@@H]2C1` [Example 122, [6-(3-cyclopropyl-1,2,4-triazol-1-yl)-2-azaspiro[3.3]heptan-2-yl]-[rac-(3aS,6aR)-5-(4-fluoro-2-methoxy-phenoxy)-3,3a,4,5,6,6a-hexahydro-1H-cyclopenta[c]pyrrol-2-yl]methanone], the IC50 rises from 3.1 nM to 7.3 nM (2.4-fold). The first is the more potent here.

Compared with `O=C(N1CC2(CC(n3cnc(C4(O)CC4)n3)C2)C1)N1CC2(CC[C@@H](Cc3ncc(F)cc3F)C2)C1` (stereo in doubt) [Example 352, [6-[3-(1-hydroxycyclopropyl)-1,2,4-triazol-1-yl]-2-azaspiro[3.3]heptan-2-yl]-[(6R)-6-[(3,5-difluoro-2-pyridyl)methyl]-2-azaspiro[3.4]octan-2-yl]methanone], `CS(=O)(=O)c1cc(F)cc(CC2CC3(C2)CN(C(=O)N2CC4(CC(n5cnc(C6(O)CC6)n5)C4)C2)C3)c1` [Example 411, [6-[(3-fluoro-5-methylsulfonyl-phenyl)methyl]-2-azaspiro[3.3]heptan-2-yl]-[6-[3-(1-hydroxycyclopropyl)-1,2,4-triazol-1-yl]-2-azaspiro[3.3]heptan-2-yl]methanone] is 3.7-fold higher in IC50: 4.36 nM for the first, 16.3 nM for the second.

Compared with `CC(F)(F)c1ccc(C2CN(C(=O)N3CC4(CC(n5cnc(C6CC6)n5)C4)C3)C2)cc1` [Example 35], `O=C(N1CC(c2cc(F)c(OC(F)(F)F)c(F)c2)C1)N1CC2(CC(n3cnc(C4CC4)n3)C2)C1` [Example 85, [6-(3-cyclopropyl-1,2,4-triazol-1-yl)-2-azaspiro[3.3]heptan-2-yl]-[3-[3,5-difluoro-4-(trifluoromethoxy)phenyl]azetidin-1-yl]methanone] is 50-fold lower in IC50: 20 nM for the first, 0.4 nM for the second.

Compared with `O=C(N1CC(C23CC(NCC4(C(F)(F)F)CC4)(C2)C3)C1)N1CC2(CC(n3cnc(C(F)(F)F)n3)C2)C1` [Example 421, [3-[3-[[1-(trifluoromethyl)cyclopropyl]methylamino]-1-bicyclo[1.1.1]pentanyl]azetidin-1-yl]-[6-[3-(trifluoromethyl)-1,2,4-triazol-1-yl]-2-azaspiro[3.3]heptan-2-yl]methanone], `O=C(N1CC(c2ccc(NCC3CS(=O)(=O)C3)nc2)C1)N1CC2(CC(n3cnc(C(F)(F)F)n3)C2)C1` [Example 428, [3-[6-[(1,1-dioxothietan-3-yl)methylamino]-3-pyridyl]azetidin-1-yl]-[6-[3-(trifluoromethyl)-1,2,4-triazol-1-yl]-2-azaspiro[3.3]heptan-2-yl]methanone] is 77-fold higher in IC50: 0.76 nM for the first, 58.5 nM for the second. The first is the more potent here.

Compared with `Cc1noc(C)c1S(=O)(=O)N1CC2(CN(C(=O)N3CC4(CC(n5cnc(C6CC6)n5)C4)C3)C2)C1` [Example 281, [6-(3-cyclopropyl-1,2,4-triazol-1-yl)-2-azaspiro[3.3]heptan-2-yl]-[2-(3,5-dimethylisoxazol-4-yl)sulfonyl-2,6-diazaspiro[3.3]heptan-6-yl]methanone], `CS(=O)(=O)c1ccc(CC2CC3(C2)CN(C(=O)N2CC4(CC(n5cnc(C6(O)CC6)n5)C4)C2)C3)cc1C(F)(F)F` [Example 385, [6-[3-(1-hydroxycyclopropyl)-1,2,4-triazol-1-yl]-2-azaspiro[3.3]heptan-2-yl]-[6-[[4-methylsulfonyl-3-(trifluoromethyl)phenyl]methyl]-2-azaspiro[3.3]heptan-2-yl]methanone] is 33-fold lower in IC50: 41.3 nM for the first, 1.25 nM for the second. The second is the more potent here.

`N#Cc1ccc(CC2CC3(C2)CN(C(=O)N2CC4(CC(n5cnc(C6(O)CC6)n5)C4)C2)C3)cc1C(F)(F)F` [Example 368, 4-[[2-[6-[3-(1-hydroxycyclopropyl)-1,2,4-triazol-1-yl]-2-azaspiro[3.3]heptane-2-carbonyl]-2-azaspiro[3.3]heptan-6-yl]methyl]-2-(trifluoromethyl) benzonitrile] and `N=S(=O)(c1cccc(CC2CC3(C2)CN(C(=O)N2CC4(CC(n5cnc(C6(O)CC6)n5)C4)C2)C3)c1)C(F)(F)F` (single isomer, unassigned) [Example 406, [6-[3-(1-hydroxycyclopropyl)-1,2,4-triazol-1-yl]-2-azaspiro[3.3]heptan-2-yl]-[6-[[3-(trifluoromethyl-sulfonimidoyl)phenyl]methyl]-2-azaspiro[3.3]heptan-2-yl]methanone] are within 1.5-fold of each other in IC50: 1.57 nM for the first, 1.63 nM for the second.

First: CC1(COc2ncc(C(=O)N3CC4(CC(n5cnc(C6CC6)c5)C4)C3)cc2F)CC1 [Example 30]
Second: O=C(N1CC(OCc2ccc(F)cc2Cl)C1)N1CC2(CC(n3cnc(C4CC4)c3)C2)C1 [Example 109, [3-[(2-chloro-4-fluoro-phenyl)methoxy]azetidin-1-yl]-[6-(4-cyclopropylimidazol-1-yl)-2-azaspiro[3.3]heptan-2-yl]methanone]
The IC50 of the first is 1.7-fold higher: 108 nM for the first, 63.5 nM for the second. The second is the more potent here.

Going from `COc1cnn(C2CC3(C2)CN(C(=O)c2ccc(-c4noc(C(C)(C)C)n4)cc2)C3)c1` [Example 11, [4-(5-tert-butyl-1,2,4-oxadiazol-3-yl)phenyl]-[6-(4-methoxypyrazol-1-yl)-2-azaspiro[3.3]heptan-2-yl]methanone] to `CC(C)(C)c1nc(-c2ccc(C(=O)N3CC4(CC(n5cnc(C#N)n5)C4)C3)cc2)no1` [Example 20, 1-[2-[4-(5-tert-butyl-1,2,4-oxadiazol-3-yl)benzoyl]-2-azaspiro[3.3]heptan-6-yl]-1,2,4-triazole-3-carbonitrile], the IC50 falls from 1290 nM to 82 nM (16-fold).

Compared with `O=C(N1CC(c2ccc(C3(C(F)(F)F)CC3)cc2)C1)N1CC2(CC(n3ncnc3C3CC3)C2)C1` [Example 67, [6-(5-cyclopropyl-1,2,4-triazol-1-yl)-2-azaspiro13.31heptan-2-yl]−[3-[4-[1-(trifluoromethyl)cyclopropyl]phenyl]azetidin-1-yl]1methanone], `CCc1ncnn1C1CC2(C1)CN(C(=O)N1CC3(CC(Cc4ccc(F)cc4F)C3)C1)C2` [Example 328, [6-[(2,4-difluorophenyl)methyl]-2-azaspiro[3.3]heptan-2-yl]-[6-(5-ethyl-1,2,4-triazol-1-yl)-2-azaspiro[3.3]heptan-2-yl]methanone] is 4.7-fold lower in IC50: 3170 nM for the first, 673 nM for the second.

First: O=C(N1CC2(CCC(Cc3ccc(OC(F)F)nc3)CC2)C1)N1CC2(CC(c3cncc(F)c3)C2)C1 [Example 511, [7-[[6-(difluoromethoxy)-3-pyridyl]methyl]-2-azaspiro[3.5]nonan-2-yl]-[6-(5-fluoro-3-pyridyl)-2-azaspiro[3.3]heptan-2-yl]methanone]
Second: CC(C)c1ncn(C2CC3(C2)CN(C(=O)N2CC4(CC(Cc5ccc(F)cc5F)C4)C2)C3)n1 [Example 203, [6-[(2,4-difluorophenyl)methyl]-2-azaspiro[3.3]heptan-2-yl]-[6-(3-isopropyl-1,2,4-triazol-1-yl)-2-azaspiro[3.3]heptan-2-yl]methanone]
The IC50 of the first is 210-fold higher: 168 nM for the first, 0.8 nM for the second.

Molecule `Cc1cc(C(=O)N2CC3(CC(n4cnc(Cl)n4)C3)C2)cnc1OC(C)(C)C(F)(F)F` [Example 175, [6-(3-chloro-1,2,4-triazol-1-yl)-2-azaspiro[3.3]heptan-2-yl]-[5-methyl-6-(2,2,2-trifluoro-1,1-dimethyl-ethoxy)-3-pyridyl]methanone] has an IC50 of 221 nM.
